Measurements taken from patent publication US20070265208A1, “Association of calpain inhibitors and reactive oxygen species trapping agents” (priority 2000, published 2007).

Target: T1, human calpain I (Homo sapiens, UniProt P07384)
T1 construct: enzyme purified from human erythrocytes; purchased Calbiochem 208713; host or cells: human erythrocytes (native tissue source)
T1 sequence (P07384 1-714): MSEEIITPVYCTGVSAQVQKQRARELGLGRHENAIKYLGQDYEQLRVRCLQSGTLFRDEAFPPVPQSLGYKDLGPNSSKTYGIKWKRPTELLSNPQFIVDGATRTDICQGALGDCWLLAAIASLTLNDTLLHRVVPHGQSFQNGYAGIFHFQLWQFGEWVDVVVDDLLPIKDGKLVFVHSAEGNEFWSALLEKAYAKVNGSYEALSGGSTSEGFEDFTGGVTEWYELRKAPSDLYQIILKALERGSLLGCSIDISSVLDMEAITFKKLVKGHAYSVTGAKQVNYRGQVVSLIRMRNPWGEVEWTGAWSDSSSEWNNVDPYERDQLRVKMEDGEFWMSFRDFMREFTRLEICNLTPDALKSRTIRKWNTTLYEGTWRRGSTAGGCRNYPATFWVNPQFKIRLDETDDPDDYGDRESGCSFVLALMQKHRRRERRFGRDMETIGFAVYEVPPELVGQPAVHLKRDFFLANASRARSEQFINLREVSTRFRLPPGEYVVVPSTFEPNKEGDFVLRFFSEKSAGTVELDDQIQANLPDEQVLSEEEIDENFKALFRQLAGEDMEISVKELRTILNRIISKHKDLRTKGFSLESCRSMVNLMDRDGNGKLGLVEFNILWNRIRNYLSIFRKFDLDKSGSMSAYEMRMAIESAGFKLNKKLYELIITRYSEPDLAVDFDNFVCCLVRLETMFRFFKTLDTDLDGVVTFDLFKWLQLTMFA
T1 sequence (P04632 1-268 partner): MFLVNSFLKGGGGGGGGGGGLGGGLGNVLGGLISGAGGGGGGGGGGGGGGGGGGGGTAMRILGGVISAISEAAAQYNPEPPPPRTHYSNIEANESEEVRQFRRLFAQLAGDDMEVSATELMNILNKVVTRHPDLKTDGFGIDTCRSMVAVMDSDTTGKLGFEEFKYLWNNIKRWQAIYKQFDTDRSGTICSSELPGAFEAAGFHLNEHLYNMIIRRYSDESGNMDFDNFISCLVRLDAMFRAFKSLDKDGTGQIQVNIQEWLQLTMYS
Experiment: Effects on human calpain I (acellular, Suc-Leu-Tyr-AMC fluorescence)
Format: biochemical
Details: enzyme purified from human erythrocytes; 1 h at 25°C; read-out: Inhibition human calpain I, acellular [IC50 (nM)]
Method: The test consists of measuring the activity of the enzyme (enzyme purified from human erythrocytes) which is incubated in a buffer in the presence of a peptide substrate coupled with a fluorochrome (amino-methylcourmarin, AMC) and calcium. The enzyme activated by the calcium, proteolyses the substrate and releases the AMC fragment. The AMC released fluoresces at 460 nm under excitation at 380 nm. The activity of the enzyme is therefore proportional to the quantity of fluorescence i.e. of free AMC fragment. The fluorescence (380/460 nm) is measured using a multi-well fluorimeter (Victor 2, Wallac).
Assay is carried out in 96-well microplates with transparent bottoms and black walls in which 10 μl per well of substance to be tested in DMSO 10%, 45 μl of reaction mixture containing the human calpain I at 2.2 U/ml (Calbiochem, ref: 208713), the Suc Leu Tyr-AMC substrate (Bachem, ref: I-1355) at 1.1 mM in a buffer (Tris-HCl 110 mM; NaCl 110 mM; EDTA 2.2 mM; EGTA 2.2 mM; mercaptoethanol 1.1 mM) are distributed. The reaction is initiated by adding 45 μl of CaCl2 22mM. To determine the background noise, control wells without calcium are added to the plate (10 μL DMSO 10%+45 μL of buffer with the enzyme and the susbtrate +45 μL H2O). In order to determine the total activity of the enzyme control wells containing no product are added to the plate (10 μL DMSO 10%+45 μL of buffer with the enzyme and the substrate +45 μL of CaCl2 22 mM ). Each concentration of the products (0.1 nM to 10 μM) is tested in duplicate. The plates are shaken and incubation takes place for one hour at 25° C. in darkness. The fluorescence is read at 380/460 nm using the Victor.

`CC(C)C[C@@H](C=O)NC(=O)[C@H](CC(C)C)NC(=O)OCc1ccccc1` [EXAMPLE 1 B, benzyl (1S)-1-({[(1S)-1-formyl-3-methylbutyl]amino}carbonyl)-3-methylbutylcarbamate] showed an IC50 of 6 nM.
